From patent US20260297042A1, “BIARYLAMIDE DERIVATIVES AND THEIR USE AS PKMYT1 INHIBITORS” (CANCER RESEARCH TECHNOLOGY LIMITED, priority 2023, published 2026)

Legend:
KYSE-30 cells = test: Cancer cell line proliferation assay, ATP-based cell viability (Cell Titre Glow), KYSE-30 (normal CCNE1); settings: Homo sapiens, KYSE-30 cells (normal CCNE1), concentration that achieves 50% cell growth proliferation inhibition, read-out: KYSE30 Gl50
In short: (§1)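 GI50 values, the concentrations halving cell growth, were derived from ATP-based luminescence (Cell Titre Glo) after PKMYT1 inhibitor exposure. Cells tested were OVCAR 3, an ovarian line with amplified CCNE1, and KYSE-30, which has normal CCNE1.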

Human PKMYT1 = molecular target: T1, Human PKMYT1 (Homo sapiens, UniProt Q99640); test: PKMYT1 biochemical ADP-Glo enzymatic assay; settings: ADP-Glo
T1 construct: Human PKMYT1 75-362 was cloned as a TEV cleavable 6xHis fusion; 6xHis (TEV cleavable) (cleaved yes); made in house; host or cells: bacterial cells
T1 sequence (Q99640 75-362): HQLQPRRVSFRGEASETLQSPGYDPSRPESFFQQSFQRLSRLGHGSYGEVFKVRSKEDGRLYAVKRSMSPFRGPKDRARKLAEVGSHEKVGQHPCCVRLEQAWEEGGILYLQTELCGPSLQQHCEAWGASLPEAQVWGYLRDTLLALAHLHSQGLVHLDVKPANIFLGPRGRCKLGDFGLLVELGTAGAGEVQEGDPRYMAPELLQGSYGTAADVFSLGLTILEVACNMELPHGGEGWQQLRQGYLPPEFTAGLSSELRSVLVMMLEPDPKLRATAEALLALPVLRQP
In short: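 Measures inhibition of PKMYT1 autonomous ATP hydrolysis: bacterially expressed human enzyme (75-362, tag cleaved) at 15 nM with 500 µM ATP for 60 min at 26 °C, then ADP-Glo Max detection. IC50s accepted only when replicates agreed within 3-fold and curve r2 exceeded 0.9.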

OVCAR 3 cells = test: Cancer cell line proliferation assay, ATP-based cell viability (Cell Titre Glow), OVCAR 3 (CCNE1-amplified); settings: KYSE30 (normal CCNE1) GI50 vs. OVCAR 3 (CCNE1-amplified) GI50
In short: as §1

[1] = molecular target: T2, Cellular PKMYT1 Biomarker CDK1 pT14 (Homo sapiens, UniProt Q99640); test: Inhibition of cellular PKMYT1 biomarker CDK1 pT14 in OVCAR 3 cells (immunoblot); format: cell-based; settings: 20 hours incubation
T2 construct: read-out CDK1 phospho-T14 immunoblot
T2 sequence (Q99640 1-499): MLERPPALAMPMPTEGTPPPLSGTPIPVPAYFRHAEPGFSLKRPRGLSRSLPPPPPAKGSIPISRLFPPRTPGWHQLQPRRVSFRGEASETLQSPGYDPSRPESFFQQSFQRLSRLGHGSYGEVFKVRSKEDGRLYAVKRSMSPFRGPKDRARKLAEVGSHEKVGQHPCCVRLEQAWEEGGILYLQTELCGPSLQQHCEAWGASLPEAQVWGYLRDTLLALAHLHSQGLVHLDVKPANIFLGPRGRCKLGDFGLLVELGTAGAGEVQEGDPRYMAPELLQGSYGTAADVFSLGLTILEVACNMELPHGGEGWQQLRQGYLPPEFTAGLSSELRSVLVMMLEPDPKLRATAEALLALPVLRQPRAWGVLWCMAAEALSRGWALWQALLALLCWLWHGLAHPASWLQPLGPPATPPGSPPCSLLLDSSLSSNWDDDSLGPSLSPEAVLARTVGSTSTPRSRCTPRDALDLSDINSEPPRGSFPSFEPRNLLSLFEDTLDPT
In short: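 Confluent OVCAR 3 cells treated with a compound concentration range for 20 h at 37 °C. Lysates analysed by automated capillary immunoblot for CDK1 phospho-T14, with vinculin, fluorescence detection; IC50 by regression.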

WEE1 = molecular target: T3, WEE1 (Homo sapiens, UniProt P30291); test: Selectivity versus WEE1 assay (ADP-Glo enzymatic assay); format: biochemical; settings: for IC50: ADP-Glo; for PKMYT1 vs. WEE1 selectivity: fold difference in selectivity for PKMYT1 over WEE1
T3 construct: purchased Thermo Fisher PR7373A
T3 sequence (P30291 whole entry): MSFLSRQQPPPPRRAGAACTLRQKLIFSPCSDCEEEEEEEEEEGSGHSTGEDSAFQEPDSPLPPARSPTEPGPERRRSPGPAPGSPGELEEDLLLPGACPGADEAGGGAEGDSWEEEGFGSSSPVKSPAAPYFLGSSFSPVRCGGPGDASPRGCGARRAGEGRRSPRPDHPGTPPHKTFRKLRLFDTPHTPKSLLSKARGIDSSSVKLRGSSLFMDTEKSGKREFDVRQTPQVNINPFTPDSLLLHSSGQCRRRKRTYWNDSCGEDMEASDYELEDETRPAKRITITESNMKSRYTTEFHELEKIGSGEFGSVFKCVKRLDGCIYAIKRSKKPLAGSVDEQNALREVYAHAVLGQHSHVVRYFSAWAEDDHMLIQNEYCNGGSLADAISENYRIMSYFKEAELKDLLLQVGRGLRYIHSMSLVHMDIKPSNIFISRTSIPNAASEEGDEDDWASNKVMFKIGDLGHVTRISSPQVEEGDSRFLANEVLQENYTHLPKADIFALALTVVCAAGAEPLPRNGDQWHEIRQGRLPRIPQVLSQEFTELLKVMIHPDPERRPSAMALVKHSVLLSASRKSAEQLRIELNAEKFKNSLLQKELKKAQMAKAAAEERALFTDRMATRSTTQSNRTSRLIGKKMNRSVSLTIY
In short: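 Same format as the PKMYT1 assay: WEE1 at 15 nM final with 30 µM ATP, 60 min at 26° C, ADP-Glo luminescence detection, IC50 by dose-response fitting.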

[2] = PKMYT1 kinase domain 15 nM, banded values
[3] = 15 nM PKMYT1 kinase domain, 500 µM ATP, 60 minutes at 26° C., banded
[4] = 15 nM WEE1, 60 minutes at 26° C., banded
[5] = banded, ">N" = at least in this band but could be higher

Row | SMILES | GI50 (KYSE-30 cells) | IC50 (Human PKMYT1; [2]) | Selectivity ratio KYSE30 Gl50 vs. OVCAR3 Gl50 (OVCAR 3 cells) | IC50 [1] | IC50 (WEE1; WEE1 15 nM, banded values) | PKMYT1 vs. WEE1 selectivity (WEE1; banded) | IC50 (Human PKMYT1; [3]) | IC50 (WEE1; [4]) | PKMYT1 vs. WEE1 selectivity (WEE1; [5])
1 | Cc1ccc(O)c(C)c1NC(=O)c1cnc(Nc2cc(N3CCOCC3)ccn2)s1 [BAA-402, N-(3-hydroxy-2,6-dimethylphenyl)-2-((4-morpholinopyridin-2-yl)amino)thiazole-5-carboxamide] | 500 to 5000 nM | < 50 nM | Y (>20 fold) | < 100 nM | 50 to 1000 nM | W (10-<100 fold) |  |  | 
2 | Cc1ccc(O)c(C)c1NC(=O)c1cnc(Nc2nn(CC(F)F)cc2Br)s1 [BAA-587, 2-((4-bromo-1-(2,2-difluoroethyl)-1H-pyrazol-3-yl)amino)-N-(3-hydroxy-2,6-dimethylphenyl)thiazole-5-carboxamide] | 500 to 5000 nM | < 50 nM | Y (>20 fold) | < 100 nM | 1000 to 11000 nM | X (100-<1000 fold) |  |  | 
3 | Cc1cccc(Nc2ncc(C(=O)Nc3c(C)ccc(O)c3C)s2)n1 [BAA-407, N-(3-hydroxy-2,6-dimethylphenyl)-2-((6-methylpyridin-2-yl)amino)thiazole-5-carboxamide] | > 5000 nM | < 50 nM | Y (>20 fold) | < 100 nM | 1000 to 11000 nM | X (100-<1000 fold) |  |  | 
4 | Cc1cn(CC(=O)N2CCCC2c2ccccc2)nc1Nc1ncc(C(=O)Nc2c(C)ccc(O)c2C)s1 (stereo not drawn) [BAA-600, N-(3-hydroxy-2,6-dimethylphenyl)-2-((4-methyl-1-(2-oxo-2-(2-phenylpyrrolidin-1-yl)ethyl)-1H-pyrazol-3-yl)amino)thiazole-5-carboxamide] | 500 to 5000 nM | < 50 nM | Y (>20 fold) | < 100 nM | 1000 to 11000 nM | X (100-<1000 fold) |  |  | 
5 | Cc1ccc(O)c(C)c1NC(=O)c1cnc(Nc2nc(NC(=O)C(C)(C)C)ccc2Cl)s1.Cl [BAA-333, 2-((3-chloro-6-pivalamidopyridin-2-yl)amino)-N-(3-hydroxy-2,6-dimethylphenyl)thiazole-5-carboxamide hydrochloride] | > 5000 nM |  | Y (>20 fold) | < 100 nM |  |  | 50 to 1000 nM | > 11000 nM | Y (1000-5000 fold)
6 | COc1ccc(F)c(Nc2ncc(C(=O)Nc3c(C)ccc(O)c3C)s2)n1 [BAA-425, 2-((3-fluoro-6-methoxypyridin-2-yl)amino)-N-(3-hydroxy-2,6-dimethylphenyl)thiazole-5-carboxamide] | 500 to 5000 nM | < 50 nM | Y (>20 fold) | < 100 nM | > 11000 nM | Y (1000-5000 fold) |  |  | 
7 | Cc1ccc(O)c(C)c1NC(=O)c1cnc(Nc2cccc(N3CCC(F)(F)CC3)n2)s1 [BAA-314, 2-((6-(4,4-difluoropiperidin-1-yl)pyridin-2-yl)amino)-N-(3-hydroxy-2,6-dimethylphenyl)thiazole-5-carboxamide] | 500 to 5000 nM |  | Y (>20 fold) | < 100 nM |  |  | 50 to 1000 nM | 1000 to 11000 nM | W (10-<100 fold)
8 | Cc1ccc(O)c(C)c1NC(=O)c1cnc(Nc2cccc(N3CCN(CCO)CC3)n2)s1 [BAA-432, N-(3-hydroxy-2,6-dimethylphenyl)-2-((6-(4-(2-hydroxyethyl)piperazin-1-yl)pyridin-2-yl)amino)thiazole-5-carboxamide] | > 5000 nM | < 50 nM | Y (>20 fold) | < 100 nM | 1000 to 11000 nM | X (100-<1000 fold) |  |  | 
